Like-named read-outs stand apart in the source and are kept apart here.

In one series the test system is plasma proteins. Particulars: cited from earlier work.
For series [1], the target named is CYP2C9 present in the human liver microsomes (Homo sapiens, UniProt P11712). In kind it is biochemical. As to conditions: for Ki fold above the Km for S-warfarin: human liver microsomes, marker Km. For orientation: Liver microsomes are vesicles of endoplasmic reticulum, rich in cytochrome P450 enzymes.
For the next series, the target named is Recombinant CYP2C9 (Homo sapiens, UniProt P11712). The series is described as follows: P450-Glo IC50 screen of recombinant CYP2C9 activity. In kind it is biochemical. Particulars: relative to racemic warfarin IC50.
For series [2], the target named is T1, recombinant CYP2C9*1 (Homo sapiens, UniProt P11712). The series is described as follows: Steady-state inhibition of S-warfarin metabolism by recombinant CYP2C9. In kind it is biochemical.
In series [3] the target is T1, recombinant CYP2C9*1. The series is described as follows: Uninhibited steady-state metabolism of S-warfarin by recombinant CYP2C9. As to conditions: S-7-hydroxywarfarin formation.
Series [4] concerns the target T2, pooled human liver microsomes (Homo sapiens, UniProt P11712).
Series [5] has as its target T2, pooled human liver microsomes. Particulars: 7-hydroxywarfarin formation.
The target of series [6] is T1, recombinant CYP2C9*1.
In another series the test system is CYP2C9. As to conditions: binds and inhibits CYP2C9, not metabolized; cited from earlier work.
Setting [7] is: 2.0 mg/mL microsomal protein, marker 7-hydroxywarfarin formation.
Setting [8] is: results based on S-6-hydroxywarfarin formation.

CYP2C9 present in the human liver microsomes, sequence (P11712 whole entry): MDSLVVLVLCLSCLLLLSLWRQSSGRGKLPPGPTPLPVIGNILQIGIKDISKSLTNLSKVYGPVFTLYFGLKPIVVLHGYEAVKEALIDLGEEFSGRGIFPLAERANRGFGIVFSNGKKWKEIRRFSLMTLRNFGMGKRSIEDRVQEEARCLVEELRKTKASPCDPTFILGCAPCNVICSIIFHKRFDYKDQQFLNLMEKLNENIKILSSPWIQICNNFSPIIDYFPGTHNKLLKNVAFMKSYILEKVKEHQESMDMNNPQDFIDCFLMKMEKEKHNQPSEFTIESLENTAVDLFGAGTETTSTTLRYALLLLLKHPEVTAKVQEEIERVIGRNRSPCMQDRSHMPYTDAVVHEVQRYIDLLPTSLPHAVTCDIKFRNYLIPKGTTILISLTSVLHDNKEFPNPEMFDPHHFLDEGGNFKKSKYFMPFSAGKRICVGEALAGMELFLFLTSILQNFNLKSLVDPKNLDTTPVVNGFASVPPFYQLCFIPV
T2 sequence (P11712 whole entry): as above
Recombinant CYP2C9, sequence (P11712 whole entry): as above

With `CC(=O)CC(c1ccccc1)c1c(O)c2cccc(O)c2oc1=O` (centres unmarked) [8OHWAR, 8-hydroxywarfarin], in the series with plasma proteins, the “fold lower affinity for plasma proteins than warfarin” value (“fold lower affinity” below) was 3- to 4 fold. Further, the mechanism result in series [1] (setting [7]) is reported as “competitive”. For the same molecule, the “Ki fold above the Km for S-warfarin” value in [1] is recorded as “approximately 3 fold”.
As for `CC(=O)CC(c1ccc(O)cc1)c1c(O)c2ccccc2oc1=O` (centres unmarked) [4′OHWAR, 4′-hydroxywarfarin], the “affinity for human plasma albumin” value with plasma proteins is reported as “comparable to that of warfarin”. For the same molecule, the mechanism result in series [1] (setting [7]) was “competitive”. Moreover, in series [1], the “Ki fold above the Km for S-warfarin” value was “approximately 3 fold”.
As for `CC(=O)CC(c1ccccc1)c1c(O)c2ccc(O)cc2oc1=O` (centres unmarked) [7OHWAR, 7-hydroxywarfarin], the “IC50 fold higher than that observed for warfarin” value on Recombinant CYP2C9 is listed as “approximately 8 fold”. Also, in the series on plasma proteins, the “fold lower affinity” value is listed as 3- to 4 fold. In [1], the “Ki fold above the Km for S-warfarin” value amounted to 8.5 fold. Moreover, the mechanism entry (in series [1] (setting [8]); on recombinant CYP2C9*1 [2] (setting [8])) was “competitive” each time.
For `CC(=O)C(O)C(c1ccccc1)c1c(O)c2ccccc2oc1=O` (centres unmarked) [10OHWAR, 10-hydroxywarfarin], the “Ki fold lower than the observed microsomal Km for S-warfarin” value in [1] is reported as 2.4 fold. The mechanism result in [1] (setting [7]) was “competitive”. Besides, at recombinant CYP2C9*1 [2] (abstract statement), the “affinity fold higher than S-warfarin” value is recorded as “approximately 3 fold”. Besides, the “Ki fold lower than the Km for S-warfarin” value on recombinant CYP2C9*1 [2] (recombinant CYP2C9) is given as “approximately 2.5 fold”.
In the case of `CC(=O)C[C@@H](c1ccccc1)c1c(O)c2ccccc2oc1=O` [S-warfarin], the Km is 2.3 µM at recombinant CYP2C9*1 [3], 7.5 µM in series [4], 5.2 µM in [5] and 3.3 µM on recombinant CYP2C9*1 [6]. The Vmax at recombinant CYP2C9*1 [3] is given as 68 pmol/min/nmol P450; in series [5], 173 pmol/min/mg protein.
Turning to `CC(=O)C[C@H](c1ccccc1)c1c(O)c2ccccc2oc1=O` [R-warfarin], in the series on CYP2C9, the Ki was […].
Regarding `CC(=O)CC(c1ccccc1)c1c(O)c2cc(O)ccc2oc1=O` (centres unmarked) [6OHWAR, 6-hydroxywarfarin], in the series on plasma proteins, the “fold lower affinity” value is on record as 3- to 4 fold. Moreover, the mechanism result in [1] (setting [7]) is “competitive”. Further, the “Ki fold above the Km for S-warfarin” value in series [1] was “approximately 32 fold”. The “inhibition of S-warfarin metabolism” value on recombinant CYP2C9*1 [2] (up to 170 μM inhibitor) is given as “no inhibition”.

What is called Km is the substrate concentration at which the rate is half of its maximum. In general, Ki refers to a dissociation constant, usually derived from enzyme kinetics or from competition with a known ligand.

The values above are taken from PMC5406237 (Chemical research in toxicology, 2010).
